Organism: Rattus norvegicus
Assay: DrugMatrix - Regimen: Daily Repeat
Assay type: toxicity, organism-based, Sprague-Dawley
Design: regimen Daily Repeat, gender Male, age 6-8 weeks
Conditions: in vivo, po, route oral GAVAGE, vehicle 100 % WATER; for CREATININE / GLUCOSE / LACTATE DEHYDROGENASE / LIPASE / PHOSPHORUS / POTASSIUM / SODIUM / TOTAL BILIRUBIN / TOTAL PROTEIN / URIC ACID / ALANINE AMINOTRANSFERASE / ALBUMIN / ALKALINE PHOSPHATASE / ASPARTATE AMINOTRANSFERASE / BLOOD UREA NITROGEN / CARBON DIOXIDE / CHLORIDE / CHOLESTEROL / CREATINE PHOSPHOKINASE: tissue Plasma; for ABSOLUTE BASOPHIL / ABSOLUTE EOSINOPHIL / ABSOLUTE LYMPHOCYTE / ABSOLUTE MONOCYTE / ABSOLUTE SEGMENTED NEUTROPHIL / BASOPHIL / EOSINOPHIL / ERYTHROCYTE COUNT / HEMATOCRIT / HEMOGLOBIN / LEUKOCYTE COUNT / LYMPHOCYTE / MEAN CORPUSCULAR HEMOGLOBIN / MEAN CORPUSCULAR HEMOGLOBIN CONCENTRATION / MEAN CORPUSCULAR VOLUME / MONOCYTE / NEUTROPHIL / NUCLEATED RED BLOOD CELLS / PLATELET COUNT: tissue Blood
[1] = 25 mg/kg, 120 h, dose level Low, time 5 day
[2] = 54 mg/kg, 72 h, dose level High, time 3 day
[3] = 54 mg/kg, 120 h, dose level High, time 5 day
[4] = 80 mg/kg, 72 h, dose level High, time 3 day
[5] = 80 mg/kg, 120 h, dose level High, time 5 day

`CCC1(c2ccccc2)C(=O)NC(=O)NC1=O` [PHENOBARBITAL] was tested, and the CREATININE [1] was 0.15 mg/dL, the GLUCOSE [1] was 135.67 mg/dL and the “LACTATE DEHYDROGENASE” value [1] was 131 u/L. It also gave an LIPASE [1] of 9.33 u/L, a PHOSPHORUS [1] of 11 mg/dL and a POTASSIUM [1] of 6.37 MEQ/L. For the same compound, the SODIUM [1] was 145.53 MEQ/L, the “TOTAL BILIRUBIN” value [1] was 0.17 mg/dL and the “TOTAL PROTEIN” value [1] was 6.23 G/DL. The “URIC ACID” value [1] was 0.7 mg/dL, the “ABSOLUTE BASOPHIL” value [2] was 0 CELLS/uL and the “ABSOLUTE EOSINOPHIL” value [2] was 0 CELLS/uL. The “ABSOLUTE LYMPHOCYTE” value [2] was 6613.67 CELLS/uL, the “ABSOLUTE MONOCYTE” value [2] was 76.67 CELLS/uL and the “ABSOLUTE SEGMENTED NEUTROPHIL” value [2] was 1009.67 CELLS/uL. For the same compound, the BASOPHIL [2] was 0%, the EOSINOPHIL [2] was 0% and the “ERYTHROCYTE COUNT” value [2] was 5.6 x10E6/uL. For the same compound, the HEMATOCRIT [2] was 34.33%, the HEMOGLOBIN [2] was 13.17 G/DL and the “LEUKOCYTE COUNT” value [2] was 7.7 x10E3/uL. For the same compound, the LYMPHOCYTE [2] was 86%, the “MEAN CORPUSCULAR HEMOGLOBIN” value [2] was 23.53 pg and the “MEAN CORPUSCULAR HEMOGLOBIN CONCENTRATION” value [2] was 38.37 G/DL. For the same compound, the “MEAN CORPUSCULAR VOLUME” value [2] was 61.37 fL, the MONOCYTE [2] was 1% and the NEUTROPHIL [2] was 13%. The “NUCLEATED RED BLOOD CELLS” value [2] was 0 /100WBC, the “PLATELET COUNT” value [2] was 1130.67 x10E3/uL and the “ALANINE AMINOTRANSFERASE” value [2] was 66.33 u/L. For the same compound, the ALBUMIN [2] was 3.9 G/DL, the “ALKALINE PHOSPHATASE” value [2] was 296.33 u/L and the “ASPARTATE AMINOTRANSFERASE” value [2] was 99.33 u/L. The “BLOOD UREA NITROGEN” value [2] was 16.33 mg/dL, the “CARBON DIOXIDE” value [2] was 35.67 mmol/L and the CHLORIDE [2] was 98.5 MEQ/L. For the same compound, the CHOLESTEROL [2] was 85.67 mg/dL, the “CREATINE PHOSPHOKINASE” value [2] was 643 u/L and the CREATININE [2] was 0.14 mg/dL. The GLUCOSE [2] was 132.33 mg/dL, the “LACTATE DEHYDROGENASE” value [2] was 152.67 u/L and the LIPASE [2] was 11 u/L. For the same compound, the PHOSPHORUS [2] was 10.93 mg/dL, the POTASSIUM [2] was 5.81 MEQ/L and the SODIUM [2] was 144.8 MEQ/L. The “TOTAL BILIRUBIN” value [2] was 0.2 mg/dL, the “TOTAL PROTEIN” value [2] was 5.87 G/DL and the “URIC ACID” value [2] was 0.63 mg/dL. For the same compound, the “ABSOLUTE BASOPHIL” value [3] was 0 CELLS/uL, the “ABSOLUTE EOSINOPHIL” value [3] was 0 CELLS/uL and the “ABSOLUTE LYMPHOCYTE” value [3] was 8394.67 CELLS/uL. The “ABSOLUTE MONOCYTE” value [3] was 27.33 CELLS/uL, the “ABSOLUTE SEGMENTED NEUTROPHIL” value [3] was 1011.33 CELLS/uL and the BASOPHIL [3] was 0%. For the same compound, the EOSINOPHIL [3] was 0%, the “ERYTHROCYTE COUNT” value [3] was 5.14 x10E6/uL and the HEMATOCRIT [3] was 32.97%. For the same compound, the HEMOGLOBIN [3] was 12.8 G/DL, the “LEUKOCYTE COUNT” value [3] was 9.43 x10E3/uL and the LYMPHOCYTE [3] was 89.33%. For the same compound, the “MEAN CORPUSCULAR HEMOGLOBIN” value [3] was 24.87 pg, the “MEAN CORPUSCULAR HEMOGLOBIN CONCENTRATION” value [3] was 38.83 G/DL and the “MEAN CORPUSCULAR VOLUME” value [3] was 64.1 fL. For the same compound, the MONOCYTE [3] was 0.33%, the NEUTROPHIL [3] was 10.33% and the “NUCLEATED RED BLOOD CELLS” value [3] was 0 /100WBC. For the same compound, the “PLATELET COUNT” value [3] was 1251 x10E3/uL, the “ALANINE AMINOTRANSFERASE” value [3] was 51 u/L and the ALBUMIN [3] was 4.2 G/DL. For the same compound, the “ALKALINE PHOSPHATASE” value [3] was 333.33 u/L, the “ASPARTATE AMINOTRANSFERASE” value [3] was 88.33 u/L and the “BLOOD UREA NITROGEN” value [3] was 18.33 mg/dL. The “CARBON DIOXIDE” value [3] was 32.67 mmol/L, the CHLORIDE [3] was 100.67 MEQ/L and the CHOLESTEROL [3] was 84 mg/dL. For the same compound, the “CREATINE PHOSPHOKINASE” value [3] was 245.33 u/L, the CREATININE [3] was 0.16 mg/dL and the GLUCOSE [3] was 134.67 mg/dL. The “LACTATE DEHYDROGENASE” value [3] was 129.33 u/L, the LIPASE [3] was 9.67 u/L and the PHOSPHORUS [3] was 10.53 mg/dL. For the same compound, the POTASSIUM [3] was 6.17 MEQ/L, the SODIUM [3] was 145.07 MEQ/L and the “TOTAL BILIRUBIN” value [3] was 0.2 mg/dL. The “TOTAL PROTEIN” value [3] was 6.4 G/DL, the “URIC ACID” value [3] was 0.8 mg/dL and the BASOPHIL [4] was 0.45%. For the same compound, the EOSINOPHIL [4] was 0.45%, the “ERYTHROCYTE COUNT” value [4] was 7.21 x10E6/uL and the HEMATOCRIT [4] was 44%. The HEMOGLOBIN [4] was 13.8 G/DL, the “LEUKOCYTE COUNT” value [4] was 13.79 x10E3/uL and the LYMPHOCYTE [4] was 79.7%. The “MEAN CORPUSCULAR HEMOGLOBIN” value [4] was 19.15 pg, the “MEAN CORPUSCULAR HEMOGLOBIN CONCENTRATION” value [4] was 31.35 G/DL and the “MEAN CORPUSCULAR VOLUME” value [4] was 61.05 fL. For the same compound, the MONOCYTE [4] was 2.35%, the NEUTROPHIL [4] was 15.8% and the “PLATELET COUNT” value [4] was 1419.5 x10E3/uL. The “ALANINE AMINOTRANSFERASE” value [4] was 37.33 u/L, the ALBUMIN [4] was 3.43 G/DL and the “ALKALINE PHOSPHATASE” value [4] was 281 u/L. The “ASPARTATE AMINOTRANSFERASE” value [4] was 57 u/L, the “BLOOD UREA NITROGEN” value [4] was 12.33 mg/dL and the CHLORIDE [4] was 103 MEQ/L. The CHOLESTEROL [4] was 84.33 mg/dL, the “CREATINE PHOSPHOKINASE” value [4] was 205.33 u/L and the CREATININE [4] was 0.37 mg/dL. The GLUCOSE [4] was 185 mg/dL, the PHOSPHORUS [4] was 13.43 mg/dL and the POTASSIUM [4] was 6.63 MEQ/L. For the same compound, the SODIUM [4] was 147 MEQ/L, the “TOTAL BILIRUBIN” value [4] was 0.43 mg/dL and the “TOTAL PROTEIN” value [4] was 5.8 G/DL. For the same compound, the BASOPHIL [5] was 0.43%, the EOSINOPHIL [5] was 0.4% and the “ERYTHROCYTE COUNT” value [5] was 6.51 x10E6/uL. For the same compound, the HEMATOCRIT [5] was 40.63%, the HEMOGLOBIN [5] was 13.03 G/DL and the “LEUKOCYTE COUNT” value [5] was 13 x10E3/uL. For the same compound, the LYMPHOCYTE [5] was 81.9%, the “MEAN CORPUSCULAR HEMOGLOBIN” value [5] was 20.1 pg and the “MEAN CORPUSCULAR HEMOGLOBIN CONCENTRATION” value [5] was 32.13 G/DL. For the same compound, the “MEAN CORPUSCULAR VOLUME” value [5] was 62.43 fL, the MONOCYTE [5] was 2.6% and the NEUTROPHIL [5] was 13.63%. For the same compound, the “PLATELET COUNT” value [5] was 1415.67 x10E3/uL, the “ALANINE AMINOTRANSFERASE” value [5] was 40.33 u/L and the ALBUMIN [5] was 3.43 G/DL. The “ALKALINE PHOSPHATASE” value [5] was 257 u/L, the “ASPARTATE AMINOTRANSFERASE” value [5] was 54 u/L and the “BLOOD UREA NITROGEN” value [5] was 12 mg/dL. For the same compound, the CHLORIDE [5] was 103.67 MEQ/L, the CHOLESTEROL [5] was 104 mg/dL and the “CREATINE PHOSPHOKINASE” value [5] was 162.67 u/L. It also gave a CREATININE [5] of 0.37 mg/dL, a GLUCOSE [5] of 183.67 mg/dL and a PHOSPHORUS [5] of 12.7 mg/dL. The POTASSIUM [5] was 6.67 MEQ/L, the SODIUM [5] was 145.67 MEQ/L and the “TOTAL BILIRUBIN” value [5] was 0.33 mg/dL. For the same compound, the “TOTAL PROTEIN” value [5] was 5.87 G/DL.
